A short description of series [1]: Relative crystallographic stability of the crystal forms. It is filed as physicochemical. The settings on record: comparison of crystal forms A, B and C.
Series [2] is described as follows: Transition of crystal form B into crystal form A in a heated acetone/water slurry, followed by IR spectrum. It is filed as physicochemical. Particulars: suspended in acetone (51.2 g) and water (17.1 g), stirred while heating at 40° C. As for the experimental part:
Crystal form B of 3-(2,4-dichlorobenzyl)-2-methyl-N-(pentylsulfonyl)-3H-benzimidazole-5-carboxamide (5.0 g) was suspended in a mixed solvent consisting of acetone (51.2 g) and water (17.1 g), and the resulting slurry was stirred while heating at 40° C. About 4 hours later, crystals in the slurry completely transitioned into those with the IR spectrum that agreed with the spectrum of crystal form A of 3-(2,4-dichlorobenzyl)-2-methyl-N-(pentylsulfonyl)-3H-benzimidazole-5-carboxamide.

From patent publication US6703410B1, “Crystal forms of 3-(2,4-dichlorobenzyl)-2-methyl-n-(pentylsulfonyl)-3h-benzimidazole-5-carboxamide” (Fujisawa Pharmaceutical Co., Ltd., priority 1998, dated 2004) come the findings set out here.

Regarding `CCCCCS(=O)(=O)NC(=O)c1ccc2nc(C)n(Cc3ccc(Cl)cc3Cl)c2c1` [Crystal form A, 3-(2,4-dichlorobenzyl)-2-methyl-N-(pentylsulfonyl)-3H-benzimidazole-5-carboxamide], in series [1] (listed as crystal form A), the “crystallographic stability relative to the other crystal forms” value was “crystallographically more stable than crystal form B and C”.

Turning to `CCCCCS(=O)(=O)NC(=O)c1ccc2nc(C)n(Cc3ccc(Cl)cc3Cl)c2c1` [Crystal form B, 3-(2,4-dichlorobenzyl)-2-methyl-N-(pentylsulfonyl)-3H-benzimidazole-5-carboxamide], in series [2], the “time until crystals in the slurry completely transitioned into crystal form A” value is reported as “About 4 hours”. Moreover, the “crystallographic stability relative to the other crystal forms” value in series [1] (listed as crystal form B) was “not as crystallographically stable as crystal form A”.
